System: HSV-1
Experiment: HSV infection of Vero 76 cells, viral DNA detected by hybridization capture with chemiluminescence
Format: cell-based
Settings: Human alphaherpesvirus 1; HSV-1 in Vero 76 cells, MOI=0.001, incubated 40–48 hours with test compound
Experimental: Vero 76 cells were maintained in MEM with Earle's salts, L-glutamine, 8% FBS (Hyclone, A-1111-L) and 100 units/mL Penicillin-100 μg/mL Streptomycin. For assay conditions, FBS was reduced to 2%. Cells are seeded into 96-well tissue culture plates at a density of 5×10^4 cells/well after being incubated for 45 min at 37° C. in the presence of HSV-1 or HSV-2 (MOI=0.001). Test compounds are added to the wells and the plates are incubated at 37° C. for 40–48 hours. Cell lysates are prepared as follows: media was removed and replaced with 150 μL/well 0.2 N NaOH with 1% Igepal CA 630 or NP-40. Plates were incubated up to 14 days at room temperature in a humidified chamber to prevent evaporation.
For the detection probe, a gel-purified, digoxigenin-labeled, 710-bp PCR fragment of the HSV UL-15 sequence was utilized. PCR conditions included 0.5 μM primers, 180 μM dTTP, 20 μM dUTP-digoxigenin (Boehringer Mannheim 1558706), 200 μM each of dATP, dCTP, and dGTP, 1×PCR Buffer II (Perkin Elmer), 2.5 mM MgCl2, 0.025 units/μL of AmpliTaq Gold polymerase (Perkin Elmer), and 5 ng of gel-purified HSV DNA per 100 μL Extension conditions were 10 min at 95° C., followed by 30 cycles of 95° C. for 1 min, 55° C. for 30 sec, and 72° C. for 2 min. The amplification was completed with a 10-min incubation at 72° C. Primers were selected to amplify a 728 bp probe spanning a section of the HSV1 UL15 open reading frame (nucleotides 249–977). Single-stranded transcripts were purified with Promega M13 Wizard kits. The final product was mixed 1:1 with a mixture of 6 M GuSCN, 100 mM EDTA and 200 μg/mL herring sperm DNA and stored at 4° C.
The capture DNA plasmid (HSV UL13 region in pUC) was linearized by cutting with XbaI, denatured for 15 min at 95° C. and diluted immediately into Reacti-Bind DNA Coating Solution (Pierce, 17250, diluted 1:1 with TE buffer, pH 8) at 1 ng/μL 75 μL/well were added to Corning (#3922 or 9690) white 96-well plates and incubated at room temperature for at least 4 hrs before washing twice with 300 μL/well 0.2×SSC/0.05% Tween-20 (SSC/T buffer). The plates were then incubated overnight at room temperature with 150 μL/well 0.2 N NaOH, 1% IGEPAL and 10 μg/mL herring sperm DNA.
Twenty-seven (27) μL of cell lysate was combined with 45 μL of hybridization solution (final concentration: 3M GuSCN, 50 mM EDTA, 100 μg/ml salmon sperm DNA, 5×Denhardt's solution, 0.25×APE, and 5 ng of the digoxigenin-labeled detection probe). APE is 1.5 M NH4-acetate, 0.15 M ammonium phosphate monobasic, and 5 mM EDTA adjusted to pH 6.0. Mineral oil (50 μL) was added to prevent evaporation. The hybridization plates were incubated at 95° C. for 10 minutes to denature the DNA, then incubated at 42° C. overnight. The wells were washed 6× with 300 μL/well SSC/T buffer then incubated with 75 μL/well anti-digoxigenin-HRP-conjugated antibody (Boehringer Mannheim 1207733, 1:5000 in TE) for 30 min at room temperature. The wells were washed 6× with 300 μL/well with PBS/0.05% Tween-20 before 75 μL/well SuperSignal LBA substrate (Pierce) was added. The plates were incubated at room temperature for 30 minutes and chemiluminescence was measured in a Wallac Victor reader.

Nc1cccc(-c2nc3c(NC4CCCC4)cccn3c2-c2ccnc(NC3CCCC3)n2)c1 [Example 33, 2-(3-Aminophenyl)-N-cyclopentyl-3-[2-(cyclopentylamino)-4-pyrimidinyl]imidazo[1,2-α]pyridin-8-amine]
IC50: 1600 nM

c1cc(NCC2CC2)cc(-c2nc3c(NC4CCCC4)cccn3c2-c2ccnc(NC3CCCC3)n2)c1 [Example 34, N-Cyclopentyl-3-[2-(cyclopentylamino)-4-pyrimidinyl]-2-{3-[(cyclopropylmethyl)amino]phenyl}imidazo[1,2-α]pyridin-8-amine]
IC50: 1500 nM

c1cc(-c2nc3c(NC4CCCC4)cccn3c2-c2ccnc(NC3CCCC3)n2)cc(N(CC2CC2)CC2CC2)c1 [Example 35, 2-{3-[Bis(cyclopropylmethyl)amino]phenyl}-N-cyclopentyl-3-[2-(cyclopentylamino)-4-pyrimidinyl]imidazo[1,2-α]pyridin-8-amine]
IC50: 1460 nM

N#Cc1cccc(-c2nc3c(Cl)cccn3c2-c2ccnc(NC3CCCC3)n2)c1 [Example 36, 3-{8-Chloro-3-[2-(cyclopentylamino)-4-pyrimidinyl]imidazo[1,2-α]pyridin-2-yl}benzonitrile]
IC50: 650 nM

Fc1ccc(-c2nc3c(Cl)cc(Cl)cn3c2-c2ccnc(NC3CCCC3)n2)cc1 [Example 38, N-Cyclopentyl-4-[6,8-dichloro-2-(4-fluorophenyl)imidazo[1,2-α]pyridin-3-yl]-2-pyrimidinamine]
IC50: 950 nM

Fc1ccc(-c2nc3c(NC4CCCC4)cc(Cl)cn3c2-c2ccnc(NC3CCCC3)n2)cc1 [Example 39, N-{4-[6-Chloro-8-(cyclopentylamino)-2-(4-fluorophenyl)imidazo[1,2-α]pyridin-3-yl]-2-pyrimidinyl}-N-cyclopentylamine]
IC50: 1400 nM

Fc1ccc(-c2nc3c(Br)cc(Br)cn3c2-c2ccnc(NC3CCCC3)n2)cc1 [Example 40, N-Cyclopentyl-4-[6,8-dibromo-2-(4-fluorophenyl)imidazo[1,2-a]pyridin-3-yl]-2-pyrimidinamine]
IC50: 790 nM

Fc1ccc(-c2nc3c(NC4CCCC4)cc(Br)cn3c2-c2ccnc(NC3CCCC3)n2)cc1 [Example 41, N-{4-[6-Bromo-8-(cyclopentylamino)-2-(4-fluorophenyl)imidazo[1,2-a]pyridin-3-yl]-2-pyrimidinyl}-N-cyclopentylamine]
IC50: 180 nM

CCCCNc1cc(Br)cn2c(-c3ccnc(NC4CCCC4)n3)c(-c3ccc(F)cc3)nc12 [Example 42, 6-Bromo-N-butyl-3-[2-(cyclopentylamino)-4-pyrimidinyl]-2-(4-fluorophenyl)imidazo[1,2-a]pyridin-8-amine]
IC50: 290 nM

Fc1ccc(-c2nc3c(N4CCOCC4)cc(N4CCOCC4)cn3c2-c2ccnc(NC3CCCC3)n2)cc1 [Example 43, N-Cyclopentyl-4-[2-(4-fluorophenyl)-6,8-di(4-morpholinyl)imidazo[1,2-a]pyridin-3-yl]-2-pyrimidinamine]
IC50: 470 nM

Cc1cc(Br)cn2c(-c3ccnc(NC4CCCC4)n3)c(-c3ccc(F)cc3)nc12 [Example 44, N-{4-[6-Bromo-2-(4-fluorophenyl)-8-methylimidazo[1,2-a]pyridin-3-yl]-2-pyrimidinyl}-N-cyclopentylamine]
IC50: 1200 nM

Cc1cc(NC2CCCC2)cn2c(-c3ccnc(NC4CCCC4)n3)c(-c3ccc(F)cc3)nc12 [Example 45, N-Cyclopentyl-3-[2-(cyclopentylamino)-4-pyrimidinyl]-2-(4-fluorophenyl)-8-methylimidazo[1,2-a]pyridin-6-amine]
IC50: 140 nM

Cc1cccn2c(-c3ccnc(NC4CCCC4)n3)c(-c3ccc(F)cc3)nc12 [Example 46, N-Cyclopentyl-4-[2-(4-fluorophenyl)-8-methylimidazo[1,2-a]pyridin-3-yl]-2-pyrimidinamine]
IC50: 1500 nM

Fc1ccc(-c2nc3ccc(Br)cn3c2-c2ccnc(NC3CCCC3)n2)cc1 [Example 47, N-{4-[6-Bromo-2-(4-fluorophenyl)imidazo[1,2-a]pyridin-3-yl]-2-pyrimidinyl}-N-cyclopentylamine]
IC50: 4000 nM

Source: US7186714B2, “Imidazo[1,2-α]pyridine derivatives for the prophylaxis and treatment of herpes viral infections” (SmithKline Beecham Corporation, priority 2001, dated 2007)
